In data set [1] the test system is Staphylococcus aureus. Briefly: Bactericidal activity against methicillin resistant Staphylococcus aureus ATCC BAA 1556 assessed as reduction in bacterial growth at MIC measured after 16 hrs by Time kill assay. It is filed as functional, organism-based.
For data set [2], the system named is Escherichia coli. Briefly: Antibacterial activity against Escherichia coli ATCC 25922 assessed as reduction in microbial growth incubated for 24 hrs by microbroth dilution method. It counts as functional. A general note: Dilution methods test growth across graded concentrations, often in twofold steps.
The subject of data set [3] is HEK293. Description: Cytotoxicity against HEK293 cells assessed as effect on cell viability at 10 to 200 ug/ml incubated for 24 hrs by microplate reader analysis. It is filed as toxicity, cell-based. The following applies: human, hek293, 24 h, dose 10-200 µg/ml.
Data set [4] relates to HepaRG. Briefly: Cytotoxicity against human HepaRG cells assessed as assessed as reduction in cell viability at 10 ug/ml incubated for 24 hrs by microplate reader analysis. It counts as toxicity, cell-based. The following applies: dose 10 µg/ml.
In data set [5] the test system is Klebsiella pneumoniae. Briefly: Antibacterial activity against Klebsiella pneumoniae ATCC 13883 assessed as reduction in microbial growth incubated for 24 hrs by microbroth dilution method. It counts as functional.
Data set [6] is described as follows: Hemolytic activity in human Red blood cell incubated for 2 hrs by spectrophotometric analysis. It counts as toxicity, cell-based, Erythrocyte. The following applies: red blood cells (erythrocytes).
For data set [7], the system named is Pseudomonas aeruginosa. Description: Antibacterial activity against Pseudomonas aeruginosa ATCC 27883 assessed as reduction in microbial growth incubated for 24 hrs by microbroth dilution method. It is filed as functional.
The subject of data set [8] is HEK293. Description: Cytotoxicity against HEK293 cells assessed as effect on cell viability at 10 ug/ml incubated for 24 hrs by microplate reader analysis. It counts as toxicity, cell-based. The settings on record: human, hek293, 24 h, dose 10 µg/ml.
The subject of data set [9] is Staphylococcus aureus. Briefly: Antibacterial activity against Staphylococcus aureus ATCC 29213 assessed as reduction in microbial growth incubated for 24 hrs by microbroth dilution method. It is filed as functional.
Data set [10] deals with Pseudomonas aeruginosa. Description: Bactericidal activity against Pseudomonas aeruginosa ATCC BAA 1744 assessed as decrease of bacterial growth at MIC measured after 24 hrs by Time kill assay. It is filed as functional, organism-based.
The test system of data set [11] is Cell membrane. Description: Induction of membrane disruption in Staphylococcus aureus ATCC BAA -1556 assessed as increase in PI positive cells at 4 times of MIC incubated for 2 hrs by Propidium iodide staining based FACS cytometry analysis relative to control. It is filed as subcellular.
The test system of data set [12] is Cell membrane. Briefly: Induction of membrane disruption in Pseudomonas aeruginosa ATCC BAA 1744 assessed as increase in PI positive cells at MIC incubated for 2 hrs by Propidium iodide staining based FACS cytometry analysis relative to control.
Data set [13] has as its system Pseudomonas aeruginosa. Description: Antibacterial activity against carbapenem resistant Pseudomonas aeruginosa ATCC BAA 1744 assessed as reduction in microbial growth incubated for 24 hrs by microbroth dilution method. It counts as functional.
Data set [14] concerns Staphylococcus aureus. Description: Antibacterial activity against Methicillin resistant Staphylococcus aureus ATCC BAA -1556 assessed as reduction in microbial growth incubated for 24 hrs by microbroth dilution method. It counts as functional.
Data set [15] concerns Cell membrane. Briefly: Induction of membrane disruption in Staphylococcus aureus ATCC BAA -1556 assessed as increase in PI positive cells at MIC incubated for 2 hrs by Propidium iodide staining based FACS cytometry analysis relative to control.
In data set [16] the test system is Cell membrane. Description: Induction of membrane disruption in Pseudomonas aeruginosa ATCC BAA 1744 assessed as increase in PI positive cells at 4 times of MIC incubated for 2 hrs by Propidium iodide staining based FACS cytometry analysis relative to control. It is filed as subcellular.
For data set [17], the system named is Escherichia coli. Briefly: Bactericidal activity against Escherichia coli ATCC BAA 2452 assessed as decrease of bacterial growth at MIC measured after 15 hrs by Time kill assay. It counts as functional, organism-based.
Data set [18] has as its system Klebsiella pneumoniae. Briefly: Antibacterial activity against imipenem resistant Klebsiella pneumoniae ATCC BAA 1705 assessed as reduction in microbial growth incubated for 24 hrs by microbroth dilution method. It counts as functional.
Data set [19] in a line: Cytotoxicity against HEK293 cells assessed as effect on cell viability at 10 to 25 ug/ml incubated for 24 hrs by microplate reader analysis relative to control. It is filed as toxicity, cell-based. The settings on record: human, at 10 to 25 µg/mL, dose 10-25 µg/ml, read-out: Activity.
The subject of data set [20] is HepaRG. Description: Cytotoxicity against human HepaRG cells assessed as assessed as reduction in cell viability at 50 to 150 ug/ml incubated for 24 hrs by microplate reader analysis relative to control. It is filed as toxicity, cell-based. The following applies: at 50 to 150 µg/mL, dose 50-150 µg/ml.
Data set [21] deals with Escherichia coli. Description: Antibacterial activity against carbapenem and NDM-1 positive resistant Escherichia coli ATCC BAA 2452 assessed as reduction in microbial growth incubated for 24 hrs by microbroth dilution method. It is filed as functional.

The results in this text go back to ChEMBL document CHEMBL5154823, “Amphiphilic cyclic peptide [W4KR5]-Antibiotics combinations as broad-spectrum antimicrobial agents” (Eur J Med Chem, 2022).

Activity calls are given as the source filed them. Where a SMILES comes first, the peptide text is derived from it. Bridges are numbered along the chain shown (N, C = ends). [ ]: non-standard residue; d: D form. The star is where a group is joined. X1 = C[C@H](O)[C@H]1C(=O)N2C(C(=O)*)=C(S[C@@H]3CN[C@H](C(=O)N(C)C)C3)[C@@H](C)[C@H]12; X2 = CC[C@H](C)CCCCC(=O)*; Dab = NCC[C@H](N)C(=O)O

Consider `C[C@@H](O)[C@H]1C(=O)N2C(C(=O)O)=C(S[C@@H]3CN[C@H](C(=O)N(C)C)C3)[C@H](C)[C@H]12` [MEROPENEM], for which the result in [1], in data set [10] and in [17] was Active. In addition, the MIC worked out at 1 µg/mL in data set [2]; 1 µg/mL in data set [5]; 1 µg/mL in data set [7]; 2 µg/mL in data set [9]; 8 µg/mL in data set [13]; 2 µg/mL in [14]. Moreover, the Activity entry was “Non-Toxic” in data set [3]; “Non-Toxic” in [4]; “Non-Toxic” in [8]; 17.2% in data set [11]; 14.7% in data set [12]; 12.2% in data set [15]. The Activity in data set [16] is 22.1%. For the same compound, in data set [6], the 50% haemolytic concentration (HC50) at 2 h was more than 500 µg/mL.

`C[C@H](O)[C@H]1C(=O)N2C(C(=O)NCCCC[C@@H]3NC(=O)[C@H](CCCNC(=N)N)NC(=O)[C@H](CCCNC(=N)N)NC(=O)[C@H](CCCNC(=N)N)NC(=O)[C@H](CCCNC(=N)N)NC(=O)[C@H](CCCNC(=N)N)NC(=O)[C@H](Cc4c[nH]c5ccccc45)NC(=O)[C@H](Cc4c[nH]c5ccccc45)NC(=O)[C@H](Cc4c[nH]c5ccccc45)NC(=O)[C@H](Cc4c[nH]c5ccccc45)NC3=O)=C(S[C@@H]3CN[C@H](C(=O)N(C)C)C3)[C@@H](C)[C@H]12` (cyclo(K(X1)WWWWRRRRR)): the MIC was determined as 16 µg/mL in data set [18]; 4 µg/mL in [2]; 4 µg/mL in data set [5]; 16 µg/mL in data set [7]; 2 µg/mL in data set [9]; 16 µg/mL in data set [13]. Also, the MIC was determined as 4 µg/mL in data set [14] and 8 µg/mL in data set [21]. Moreover, the viability at 24 h in data set [19] was 90%. In addition, the Activity entry in data set [4] was “Non-Toxic”; in data set [8], “Non-Toxic”; in [11], 29.6%; in data set [20], 69%; in data set [16] it was 26.4%. In addition, in data set [6], the HC50 at 2 h stood at 255 µg/mL.

As for `CN(C)[C@@H]1C(O)=C(C(N)=O)C(=O)[C@@]2(O)C(O)=C3C(=O)c4c(O)cccc4[C@@](C)(O)[C@H]3C[C@@H]12` [TETRACYCLINE], the MIC in data set [18] is 16 µg/mL; in data set [2], 8 µg/mL; in [7] it was 32 µg/mL; in data set [14] it was 0.25 µg/mL.

Regarding `CC[C@H](C)CCCCC(=O)N[C@@H](CCN)C(=O)N[C@H](C(=O)N[C@@H](CCN)C(=O)N[C@H]1CCNC(=O)[C@H]([C@@H](C)O)NC(=O)[C@H](CCN)NC(=O)[C@H](CCN)NC(=O)[C@H](CC(C)C)NC(=O)[C@@H](Cc2ccccc2)NC(=O)[C@H](CCN)NC1=O)[C@@H](C)O` (X2-[Dab]T[Dab][Dab][Dab][dF]L[Dab][Dab]T; lactam 4-C), the minimal inhibitory concentration (MIC) is 1 µg/mL in data set [18], 2 µg/mL in data set [2], 1 µg/mL in data set [7] and 64 µg/mL in data set [14].

Regarding `CN[C@H](CC(C)C)C(=O)N[C@H]1C(=O)N[C@@H](CC(N)=O)C(=O)N[C@H]2C(=O)N[C@H]3C(=O)N[C@H](C(=O)N[C@H](C(=O)O)c4cc(O)cc(O)c4-c4cc3ccc4O)[C@H](O)c3ccc(c(Cl)c3)Oc3cc2cc(c3O[C@@H]2O[C@H](CO)[C@@H](O)[C@H](O)[C@H]2O[C@H]2C[C@](C)(N)[C@H](O)[C@H](C)O2)Oc2ccc(cc2Cl)[C@H]1O` [VANCOMYCIN], the MIC in data set [18], in [2] and in data set [7] was 256 µg/mL throughout.

As to `C[C@H]1COc2c(N3CCN(C)CC3)c(F)cc3c(=O)c(C(=O)O)cn1c23.C[C@H]1COc2c(N3CCN(C)CC3)c(F)cc3c(=O)c(C(=O)O)cn1c23.O` [LEVOFLOXACIN], the MIC in data set [18] is 64 µg/mL; in [2], 64 µg/mL; in data set [14], more than 128 µg/mL.

Consider `CCCCCCCCCC(=O)N[C@@H](Cc1c[nH]c2ccccc12)C(=O)N[C@H](CC(N)=O)C(=O)N[C@@H](CC(=O)O)C(=O)N[C@@H]1C(=O)NCC(=O)N[C@@H](CCCN)C(=O)N[C@@H](CC(=O)O)C(=O)N[C@H](C)C(=O)N[C@@H](CC(=O)O)C(=O)NCC(=O)N[C@H](CO)C(=O)N[C@@H]([C@H](C)CC(=O)O)C(=O)N[C@@H](CC(=O)c2ccccc2N)C(=O)O[C@@H]1C`, for which the MIC in [18] is 256 µg/mL; in data set [2], more than 128 µg/mL; in data set [7] it was more than 128 µg/mL.

On to `NC[C@H]1O[C@H](O[C@H]2[C@H](O)[C@@H](O[C@H]3O[C@H](CO)[C@@H](O)[C@H](N)[C@H]3O)[C@H](N)C[C@@H]2N)[C@H](O)[C@@H](O)[C@@H]1O` [KANAMYCIN], for which the MIC was 64 µg/mL in data set [18], 32 µg/mL in data set [2], more than 128 µg/mL in [7] and more than 128 µg/mL in data set [14].

For `CCC[C@@H]1C[C@@H](C(=O)N[C@@H]([C@H]2O[C@H](SC)[C@H](O)[C@@H](O)[C@H]2O)[C@H](C)Cl)N(C)C1` [CLINDAMYCIN], the MIC in data set [18] was 256 µg/mL; in data set [7], more than 128 µg/mL.

For the compound `O=C(O)c1cn(C2CC2)c2cc(N3CCNCC3)c(F)cc2c1=O` [CIPROFLOXACIN], in data set [2], the MIC is 64 µg/mL.

As for `NC[C@H]1O[C@H](O[C@H]2[C@H](O)[C@@H](O[C@H]3O[C@H](CO)[C@@H](O)[C@H](N)[C@H]3O)[C@H](N)C[C@@H]2N)[C@H](N)C[C@@H]1O` [TOBRAMYCIN], the MIC in [18] came out at 16 µg/mL; in [2], 8 µg/mL; in data set [7] it was 0.5 µg/mL; in data set [14], 0.5 µg/mL.

Usually MIC stands for the smallest concentration in the dilution series that meets the test's criterion for growth inhibition. As a reminder, the HC50 is the concentration giving 50% haemolysis. Low readings indicate more damage to red cells, high ones less damage to red cells.
